Results taken from paper PMC5218480 (PLoS ONE, 2017).

Test system: MV-4-11 cells
Assay: Gene expression microarray analysis (Affymetrix PrimeView) and GSEA
Assay type: cell-based, human
Parameters: RFU PODN (11730768_x_at) / Fold change /veh PODN (11730768_x_at) / RFU LINC00158 (11744669_a_at) / Fold change /veh LINC00158 (11744669_a_at) / RFU DUSP10 (11751237_a_at) / Fold change /veh DUSP10 (11751237_a_at) / RFU ID3 (11757404_x_at) / Fold change /veh ID3 (11757404_x_at) / RFU PLEKHG5 (11737974_s_at) / Fold change /veh PLEKHG5 (11737974_s_at) / RFU LRRC4B (11730491_at) / Fold change /veh LRRC4B (11730491_at) / RFU GIMAP4 (11747438_a_at) / Fold change /veh GIMAP4 (11747438_a_at) / RFU KRT8 (11758183_x_at) / Fold change /veh KRT8 (11758183_x_at) / RFU CNN1 (11734310_a_at) / Fold change /veh CNN1 (11734310_a_at) / RFU VPS37D (11726825_at) / Fold change /veh VPS37D (11726825_at) / RFU C10orf10 (11716522_x_at) / Fold change /veh C10orf10 (11716522_x_at) / RFU KIR2DL2 /// KIR2DL4 /// KIR2DL5A /// KIR2DL5B /// KIR2DS1 /// KIR2DS2 /// KIR2DS3 /// KIR2DS4 /// KIR3DL3 /// KIR3DL3 /// KIR3DS1 (11738374_at) / Fold change /veh KIR2DL2 /// KIR2DL4 /// KIR2DL5A /// KIR2DL5B /// KIR2DS1 /// KIR2DS2 /// KIR2DS3 /// KIR2DS4 /// KIR3DL3 /// KIR3DL3 /// KIR3DS1 (11738374_at) / RFU C1QL1 (11718748_at) / Fold change /veh C1QL1 (11718748_at) / RFU TMPRSS4 (11747572_a_at) / Fold change /veh TMPRSS4 (11747572_a_at) / RFU HAMP (11756126_x_at) / Fold change /veh HAMP (11756126_x_at) / RFU RNFT2 (11725882_a_at) / Fold change /veh RNFT2 (11725882_a_at) / RFU NR4A2 (11747474_a_at) / Fold change /veh NR4A2 (11747474_a_at) / RFU ABCC12 (11746883_a_at) / Fold change /veh ABCC12 (11746883_a_at) / RFU TMEM136 (11760407_x_at) / Fold change /veh TMEM136 (11760407_x_at) / RFU CLDN22 /// WWC2 (11732394_at) / Fold change /veh CLDN22 /// WWC2 (11732394_at) / RFU HLA-DPB1 (11760878_x_at) / Fold change /veh HLA-DPB1 (11760878_x_at) / RFU SPINT1 (11716480_a_at) / Fold change /veh SPINT1 (11716480_a_at) / RFU GAP43 (11754022_s_at) / Fold change /veh GAP43 (11754022_s_at) / RFU A4GNT (11735810_at) / Fold change /veh A4GNT (11735810_at) / RFU PRB3 (11715151_x_at) / Fold change /veh PRB3 (11715151_x_at) / RFU TUBB4B (11761932_at) / Fold change /veh TUBB4B (11761932_at) / RFU CAPN14 (11732068_a_at) / Fold change /veh CAPN14 (11732068_a_at) / RFU TMCC2 (11721928_a_at) / Fold change /veh TMCC2 (11721928_a_at) / RFU IRGQ (11745062_a_at) / Fold change /veh IRGQ (11745062_a_at) / RFU FAM174B (11720279_a_at) / Fold change /veh FAM174B (11720279_a_at) / RFU TMPRSS4 (11748680_a_at) / Fold change /veh TMPRSS4 (11748680_a_at) / RFU FAM212B (11763350_a_at) / Fold change /veh FAM212B (11763350_a_at) / RFU PLEKHG5 (11743358_a_at) / Fold change /veh PLEKHG5 (11743358_a_at) / RFU ZSCAN30 (11745921_a_at) / Fold change /veh ZSCAN30 (11745921_a_at) / RFU CMKLR1 (11741424_a_at) / Fold change /veh CMKLR1 (11741424_a_at) / RFU LOC101060620 /// MAPK8IP1 (11723275_at) / Fold change /veh LOC101060620 /// MAPK8IP1 (11723275_at) / RFU SPTSSB (11747773_x_at) / Fold change /veh SPTSSB (11747773_x_at) / RFU PRSS12 (11739890_at) / Fold change /veh PRSS12 (11739890_at) / RFU BIN1 (11741810_x_at) / Fold change /veh BIN1 (11741810_x_at) / RFU WNT11 (11732464_a_at) / Fold change /veh WNT11 (11732464_a_at) / RFU C10orf10 (11716521_a_at) / Fold change /veh C10orf10 (11716521_a_at) / RFU C5orf56 (11738089_at) / Fold change /veh C5orf56 (11738089_at) / RFU CYB561 (11721691_x_at) / Fold change /veh CYB561 (11721691_x_at) / RFU ANKRD19P (11752326_a_at) / Fold change /veh ANKRD19P (11752326_a_at) / RFU OR2T12 /// OR2T33 /// OR2T8 (11738714_s_at) / Fold change /veh OR2T12 /// OR2T33 /// OR2T8 (11738714_s_at) / RFU VCAN (11748164_a_at) / Fold change /veh VCAN (11748164_a_at) / RFU JSRP1 (11732532_at) / Fold change /veh JSRP1 (11732532_at) / RFU KRTAP10-11 (11738290_x_at) / Fold change /veh KRTAP10-11 (11738290_x_at) / RFU MYO3A (11730013_a_at) / Fold change /veh MYO3A (11730013_a_at) / RFU EBF3 (11725865_a_at) / Fold change /veh EBF3 (11725865_a_at) / RFU CAMK2N1 (11719241_x_at) / Fold change /veh CAMK2N1 (11719241_x_at) / RFU C5orf56 (11738088_a_at) / Fold change /veh C5orf56 (11738088_a_at) / RFU OLFML3 (11715873_a_at) / Fold change /veh OLFML3 (11715873_a_at) / RFU LOC100653217 /// NTM (11731650_a_at) / Fold change /veh LOC100653217 /// NTM (11731650_a_at) / RFU MAPK11 (11762145_a_at) / Fold change /veh MAPK11 (11762145_a_at) / RFU FIZ1 (11724087_x_at) / Fold change /veh FIZ1 (11724087_x_at) / RFU OASL (11726364_x_at) / Fold change /veh OASL (11726364_x_at) / RFU SOX15 (11748057_x_at) / Fold change /veh SOX15 (11748057_x_at) / RFU CD79A (11719716_a_at) / Fold change /veh CD79A (11719716_a_at) / RFU HIST1H1D (11736915_at) / Fold change /veh HIST1H1D (11736915_at) / RFU CASKIN2 (11723855_a_at) / Fold change /veh CASKIN2 (11723855_a_at) / RFU LOC730098 (11760151_x_at) / Fold change /veh LOC730098 (11760151_x_at) / RFU OR4N2 (11742367_at) / Fold change /veh OR4N2 (11742367_at) / RFU PRRT2 (11749266_a_at) / Fold change /veh PRRT2 (11749266_a_at) / RFU SNX32 (11753110_a_at) / Fold change /veh SNX32 (11753110_a_at) / RFU CDHR5 (11726645_a_at) / Fold change /veh CDHR5 (11726645_a_at) / RFU RCAN1 (11760418_a_at) / Fold change /veh RCAN1 (11760418_a_at) / RFU FAM167A (11723789_a_at) / Fold change /veh FAM167A (11723789_a_at) / RFU FAM26E (11764081_at) / Fold change /veh FAM26E (11764081_at) / RFU ISYNA1 (11749810_s_at) / Fold change /veh ISYNA1 (11749810_s_at) / RFU ACY1 (11761880_at) / Fold change /veh ACY1 (11761880_at) / RFU 11764098_at / Fold change /veh 11764098_at / RFU SAMD14 (11745864_x_at) / Fold change /veh SAMD14 (11745864_x_at) / RFU NPB (11741838_a_at) / Fold change /veh NPB (11741838_a_at) / RFU TMPRSS6 (11731388_a_at) / Fold change /veh TMPRSS6 (11731388_a_at) / RFU KRTAP10-2 (11738614_at) / Fold change /veh KRTAP10-2 (11738614_at) / RFU ARHGAP8 /// PRR5-ARHGAP8 (11727945_x_at) / Fold change /veh ARHGAP8 /// PRR5-ARHGAP8 (11727945_x_at) / RFU KRTAP5-7 /// NADSYN1 (11734609_at) / Fold change /veh KRTAP5-7 /// NADSYN1 (11734609_at) / RFU RASL12 (11751679_a_at) / Fold change /veh RASL12 (11751679_a_at) / RFU CDKN2B (11736163_a_at) / Fold change /veh CDKN2B (11736163_a_at) / RFU PRF1 (11729649_at) / Fold change /veh PRF1 (11729649_at) / RFU, ZNF638 /// ZNF638-IT1 / Fold change vs veh, ZNF638 /// ZNF638-IT1 / RFU, PANK3 / Fold change vs veh, PANK3 / RFU, SH3YL1 / Fold change vs veh, SH3YL1 / RFU, ZEB2 / Fold change vs veh, ZEB2 / RFU, NRIP1 / Fold change vs veh, NRIP1 / RFU, PTTG1IP / Fold change vs veh, PTTG1IP / RFU, CAPN2 / Fold change vs veh, CAPN2 / RFU, MED14 / Fold change vs veh, MED14 / RFU, SNORA58 / Fold change vs veh, SNORA58 / RFU, C1orf63 / Fold change vs veh, C1orf63 / RFU, LRRFIP1 / Fold change vs veh, LRRFIP1 / RFU, NDUFAF7 / Fold change vs veh, NDUFAF7 / RFU, SLC12A2 / Fold change vs veh, SLC12A2 / RFU, IBTK / Fold change vs veh, IBTK / RFU, ESF1 / Fold change vs veh, ESF1 / Fold change vs veh, TMEM50B / RFU, TAOK1 / Fold change vs veh, TAOK1 / RFU, ACBD3 / Fold change vs veh, ACBD3 / RFU, TMA16 / Fold change vs veh, TMA16 / RFU, RWDD3 / Fold change vs veh, RWDD3 / RFU, BCAT1 / Fold change vs veh, BCAT1 / RFU, EDEM3 / Fold change vs veh, EDEM3 / RFU, TMEM33 / Fold change vs veh, TMEM33 / RFU, WDR75 / Fold change vs veh, WDR75 / RFU, AHCTF1 / Fold change vs veh, AHCTF1 / RFU, TFRC / Fold change vs veh, TFRC / RFU, ZDHHC17 / Fold change vs veh, ZDHHC17 / RFU, NOM1 / Fold change vs veh, NOM1 / RFU, ARL8B / Fold change vs veh, ARL8B / RFU, ZBTB11 / Fold change vs veh, ZBTB11 / RFU, TAMM41 / Fold change vs veh, TAMM41 / RFU, KIAA1704 /// LOC100996395 / Fold change vs veh, KIAA1704 /// LOC100996395 / RFU, ING1 / Fold change vs veh, ING1 / RFU, TRMT61B / Fold change vs veh, TRMT61B / RFU, FUBP3 / Fold change vs veh, FUBP3 / RFU, TP53 / Fold change vs veh, TP53 / RFU, TNKS2 / Fold change vs veh, TNKS2 / RFU, ZFP14 / Fold change vs veh, ZFP14 / RFU, ACTR2 / Fold change vs veh, ACTR2 / RFU, PPP3R1 / Fold change vs veh, PPP3R1 / RFU, PIK3R1 / Fold change vs veh, PIK3R1 / RFU, HNRNPA1 / Fold change vs veh, HNRNPA1 / RFU, RNF170 / Fold change vs veh, RNF170 / RFU, ZNF28 / Fold change vs veh, ZNF28 / RFU, RNGTT / Fold change vs veh, RNGTT / RFU, OGT / Fold change vs veh, OGT / RFU, BRD1 / Fold change vs veh, BRD1 / RFU, MARS / Fold change vs veh, MARS / RFU, ZNF655 / Fold change vs veh, ZNF655 / RFU, FAHD1 / Fold change vs veh, FAHD1 / RFU, BDP1 / Fold change vs veh, BDP1 / RFU, LRRCC1 / Fold change vs veh, LRRCC1 / RFU, ARID1A / Fold change vs veh, ARID1A / RFU, ZNF146 / Fold change vs veh, ZNF146 / RFU, ZNF330 / Fold change vs veh, ZNF330 / RFU, GPN3 / Fold change vs veh, GPN3 / RFU, C9orf123 / Fold change vs veh, C9orf123 / RFU, N4BP2L2 / Fold change vs veh, N4BP2L2 / RFU, ARFIP1 / Fold change vs veh, ARFIP1 / RFU, FAM179B / Fold change vs veh, FAM179B / RFU, BCL10 / Fold change vs veh, BCL10 / RFU, UHRF1BP1L / Fold change vs veh, UHRF1BP1L / RFU, BET1 / Fold change vs veh, BET1 / RFU, CNOT2 / Fold change vs veh, CNOT2 / RFU, ZNF268 / Fold change vs veh, ZNF268 / Fold change vs veh, ZNF507 / RFU, DGCR2 / Fold change vs veh, DGCR2 / RFU, WDSUB1 / Fold change vs veh, WDSUB1 / Fold change vs veh, HSP90B1 /// MIR3652 / RFU, ADSS / Fold change vs veh, ADSS / RFU, GK / Fold change vs veh, GK / RFU, ZNF148 / Fold change vs veh, ZNF148 / RFU, TAF9 / Fold change vs veh, TAF9 / RFU, SLC1A5 / Fold change vs veh, SLC1A5 / RFU, SLMO2 / Fold change vs veh, SLMO2 / RFU, ABCC4 / Fold change vs veh, ABCC4 / RFU, LOC101060439 /// RAP1B / Fold change vs veh, LOC101060439 /// RAP1B / RFU, RFX7 / Fold change vs veh, RFX7 / RFU, GTPBP10 / Fold change vs veh, GTPBP10 / RFU, CNEP1R1 / Fold change vs veh, CNEP1R1 / RFU, BIVM-ERCC5 /// ERCC5 / Fold change vs veh, BIVM-ERCC5 /// ERCC5 / RFU, ILF3 / Fold change vs veh, ILF3 / RFU 11762660_at / Fold change /veh 11762660_at / RFU VCAN (11757783_s_at) / Fold change /veh VCAN (11757783_s_at) / RFU DDX43 (11728927_at) / Fold change /veh DDX43 (11728927_at) / RFU KRT8 (11758188_x_at) / Fold change /veh KRT8 (11758188_x_at) / RFU NKD1 (11759106_at) / Fold change /veh NKD1 (11759106_at) / RFU SRD5A1 (11742802_a_at) / Fold change /veh SRD5A1 (11742802_a_at) / RFU TPSAB1 /// TPSB2 (11721975_s_at) / Fold change /veh TPSAB1 /// TPSB2 (11721975_s_at) / RFU GSTM3 (11746129_a_at) / Fold change /veh GSTM3 (11746129_a_at) / RFU IL23R (11737362_x_at) / Fold change /veh IL23R (11737362_x_at) / RFU TMEM51 (11727254_a_at) / Fold change /veh TMEM51 (11727254_a_at) / RFU PIWIL2 (11732686_x_at) / Fold change /veh PIWIL2 (11732686_x_at) / RFU ORM1 (11744905_x_at) / Fold change /veh ORM1 (11744905_x_at) / RFU CCDC152 (11743942_at) / Fold change /veh CCDC152 (11743942_at) / RFU ECM1 (11717891_a_at) / Fold change /veh ECM1 (11717891_a_at) / RFU IL23R (11748794_a_at) / Fold change /veh IL23R (11748794_a_at) / RFU TNFAIP8L3 (11732012_x_at) / Fold change /veh TNFAIP8L3 (11732012_x_at) / RFU MBOAT4 (11741988_at) / Fold change /veh MBOAT4 (11741988_at) / RFU 11764193_at / Fold change /veh 11764193_at / RFU TMEM53 (11763286_at) / Fold change /veh TMEM53 (11763286_at) / RFU MAGEB2 (11727129_at) / Fold change /veh MAGEB2 (11727129_at) / RFU TMEM200A (11744735_a_at) / Fold change /veh TMEM200A (11744735_a_at) / RFU CCDC152 (11751479_a_at) / Fold change /veh CCDC152 (11751479_a_at) / RFU FAM211A (11726209_a_at) / Fold change /veh FAM211A (11726209_a_at) / RFU RGS16 (11746705_a_at) / Fold change /veh RGS16 (11746705_a_at) / RFU VCAN (11755009_s_at) / Fold change /veh VCAN (11755009_s_at) / RFU RHOB (11743442_s_at) / Fold change /veh RHOB (11743442_s_at) / RFU RGS16 (11720943_a_at) / Fold change /veh RGS16 (11720943_a_at) / RFU RGS16 (11720944_at) / Fold change /veh RGS16 (11720944_at) / RFU, VPS4B / Fold change vs veh, VPS4B / RFU, CREB1 / Fold change vs veh, CREB1 / RFU, DNAJC13 / Fold change vs veh, DNAJC13 / RFU, GNAQ / Fold change vs veh, GNAQ / RFU, CDK5R1 / Fold change vs veh, CDK5R1 / RFU, ZRANB3 / Fold change vs veh, ZRANB3 / RFU, CUL4A / Fold change vs veh, CUL4A / RFU, CCNY / Fold change vs veh, CCNY / RFU, UFL1 / Fold change vs veh, UFL1 / RFU, COG3 / Fold change vs veh, COG3 / RFU, DIAPH2 / Fold change vs veh, DIAPH2 / RFU, SKA2 / Fold change vs veh, SKA2 / RFU, AFF3 / Fold change vs veh, AFF3 / RFU, LMF1 / Fold change vs veh, LMF1 / RFU, IPO11 / Fold change vs veh, IPO11 / RFU, DFFB / Fold change vs veh, DFFB / RFU, FOXP1 / Fold change vs veh, FOXP1 / RFU, CARD8 / Fold change vs veh, CARD8 / RFU, STRN3 / Fold change vs veh, STRN3 / RFU, ADK / Fold change vs veh, ADK / RFU, RASSF2 / Fold change vs veh, RASSF2 / RFU, WIPF1 / Fold change vs veh, WIPF1 / RFU, LARP1B / Fold change vs veh, LARP1B / RFU, RASA1 / Fold change vs veh, RASA1 / RFU, RB1 / Fold change vs veh, RB1 / RFU, PPFIA1 / Fold change vs veh, PPFIA1 / RFU, MAT2A / Fold change vs veh, MAT2A / RFU, CCT5 / Fold change vs veh, CCT5 / RFU, WDR92 / Fold change vs veh, WDR92 / RFU, CUX1 / Fold change vs veh, CUX1 / RFU, TTC7A / Fold change vs veh, TTC7A / RFU, TMEM135 / Fold change vs veh, TMEM135 / RFU, DEPTOR / Fold change vs veh, DEPTOR / RFU, CPM / Fold change vs veh, CPM / RFU, DNAJB6 / Fold change vs veh, DNAJB6 / RFU, CACNA2D3 / Fold change vs veh, CACNA2D3 / RFU, DTX4 / Fold change vs veh, DTX4 / RFU, TFCP2 / Fold change vs veh, TFCP2 / RFU, GMCL1 /// GMCL1P1 / Fold change vs veh, GMCL1 /// GMCL1P1 / RFU, AEBP2 / Fold change vs veh, AEBP2 / RFU, SNHG1 /// SNORD22 /// SNORD25 /// SNORD26 /// SNORD27 /// SNORD28 /// SNORD29 /// SNORD31 / Fold change vs veh, SNHG1 /// SNORD22 /// SNORD25 /// SNORD26 /// SNORD27 /// SNORD28 /// SNORD29 /// SNORD31 / Fold change (Aza/veh), C12orf56 (ProbeSet 11735607_a_at) / Fold change (ACY-1035/veh), C12orf56 (ProbeSet 11735607_a_at) / Fold change (Aza/veh), FGFR1OP (ProbeSet 11751329_s_at) / Fold change (ACY-1035/veh), FGFR1OP (ProbeSet 11751329_s_at) / Fold change (Aza/veh), VPS36 (ProbeSet 11739960_a_at) / Fold change (ACY-1035/veh), VPS36 (ProbeSet 11739960_a_at) / RFU SYPL1 (11715823_x_at) / Fold change /veh SYPL1 (11715823_x_at) / RFU IGFBP7 (11715501_s_at) / Fold change /veh IGFBP7 (11715501_s_at) / RFU REEP3 (11722064_at) / Fold change /veh REEP3 (11722064_at) / RFU IGLL1 (11728026_x_at) / Fold change /veh IGLL1 (11728026_x_at): dose or concentration left out as unconfirmed
Conditions: ProbeSet 11728676_at; LIST B

## Nc1ncn([C@@H]2O[C@H](CO)[C@@H](O)[C@H]2O)c(=O)n1 [azacitidine]
  Fold change vs veh, MED14: 0.97
